Reference: patent publication US20260176320A1, “MODULATORS OF G-PROTEIN COUPLED RECEPTORS” (priority 2018, published 2026)
pEC50: −log10 of the molar value. Like-named read-outs stand apart in the source and are kept apart here. Numbered stars: 1 amine (or outer) side, 2 acyl side, 3 side chain; on linkers, the order of the positions; unused ones are H or OH. Square brackets hold non-standard residues; d marks the D form. Side chains are listed from the residue outwards. Peptide text beside a SMILES is read from it. * marks the point of attachment. Ala(1H-tetrazol-5-yl) = N[C@@H](Cc1nnn[nH]1)C(=O)O; γGlu = O=C(O)[C@H](CCC(=O)[*:2])N[*:1]; Palmitoyl = CCCCCCCCCCCCCCCC(=O)*; X6 = O=C(CSCC(=O)*)NCCN1CCCCC1=O; Aib = CC(C)(N)C(=O)O

Legend:
Format in all cases: cell-based
GIP-R = biological target: T1, GIP-R (Homo sapiens, UniProt P48546); assay: HitHunter cAMP assay (GIP-R); conditions: Table 3A, cAMP; for Emax: read-out: (Emax) GIP-R
T1 sequence (P48546 22-466): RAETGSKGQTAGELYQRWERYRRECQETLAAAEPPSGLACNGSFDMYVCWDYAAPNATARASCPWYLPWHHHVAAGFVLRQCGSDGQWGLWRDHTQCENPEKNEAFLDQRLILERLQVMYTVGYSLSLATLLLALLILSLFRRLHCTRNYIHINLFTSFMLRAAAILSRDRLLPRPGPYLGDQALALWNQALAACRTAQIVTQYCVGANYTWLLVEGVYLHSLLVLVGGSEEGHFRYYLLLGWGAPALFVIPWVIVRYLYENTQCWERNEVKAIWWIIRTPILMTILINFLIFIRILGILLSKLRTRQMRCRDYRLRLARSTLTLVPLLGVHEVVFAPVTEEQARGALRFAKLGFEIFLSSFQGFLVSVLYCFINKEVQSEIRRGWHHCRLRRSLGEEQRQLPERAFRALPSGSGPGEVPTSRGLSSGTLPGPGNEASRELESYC
Summary of the method: (§1)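 cAMP accumulation read by luminescent HitHunter immunocompetition after 30 min room-temperature agonist stimulation. Agonists tested as 22-point twofold dilutions, in duplicate, on 10,000 cells/well in HBSS containing 625 μM IBMX, 10 mM HEPES and 0.2% BSA.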

GLP-1R [1] = biological target: T2, GLP-1R (Homo sapiens, UniProt P43220); assay: PathHunter β-arrestin assay
Summary of the method: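 β-Arrestin recruitment measured by PathHunter enzyme-fragment luminescence, read after 3 h dark incubation at room temperature with detection solution. Beforehand, agonist in a 22-point 2-fold series was applied in duplicate for 90 min at 37 °C to 5,000 cells/well in BSA-containing (0.2%) medium.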

GLP-1R [2] = biological target: T2, GLP-1R; assay: HitHunter cAMP assay (GLP-1R); conditions: Table 3A, cAMP; for Emax: read-out: (Emax) GLP-1R
Summary of the method: as §1

[3] = PathHunter β-arrestin assay, read-out: β-arrestin activity EC50

T2 sequence (P43220 24-463): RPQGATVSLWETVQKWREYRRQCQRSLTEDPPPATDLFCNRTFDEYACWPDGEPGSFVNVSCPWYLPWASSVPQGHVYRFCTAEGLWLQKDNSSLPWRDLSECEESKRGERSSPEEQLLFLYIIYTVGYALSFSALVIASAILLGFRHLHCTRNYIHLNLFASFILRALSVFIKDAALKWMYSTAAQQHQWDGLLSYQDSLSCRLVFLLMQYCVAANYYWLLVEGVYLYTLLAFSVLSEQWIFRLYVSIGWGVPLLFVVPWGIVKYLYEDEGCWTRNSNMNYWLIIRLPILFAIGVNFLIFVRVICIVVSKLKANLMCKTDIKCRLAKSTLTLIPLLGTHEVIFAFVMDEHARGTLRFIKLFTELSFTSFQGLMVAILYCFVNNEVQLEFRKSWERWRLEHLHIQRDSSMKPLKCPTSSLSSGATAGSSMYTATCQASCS

Row | SMILES | Emax (GIP-R) [%] | pEC50 (GLP-1R [1]; [3]) | Emax (GLP-1R [2]) [%] | EC50 (GLP-1R [2]; read-out: EC50 GLP-1R/nM) [nM] | EC50 (GIP-R; read-out: EC50 GIP-R/nM) [nM] | EC50 (GIP-R; EC50 GIP-R/nM) [nM] | pEC50 (GLP-1R [1]) | EC50 (GLP-1R [2]; EC50 GLP-1R/nM) [nM]
1 | CCCCCCCCCCCCCCCC(=O)N[C@@H](CCC(=O)NCCCC[C@H](NC(=O)[C@H](CO)NC(=O)[C@@H]1CCCN1C(=O)[C@@H]1CCCN1C(=O)[C@@H]1CCCN1C(=O)[C@H](C)NC(=O)CNC(=O)[C@H](CO)NC(=O)[C@H](CO)NC(=O)[C@@H]1CCCN1C(=O)CNC(=O)CNC(=O)[C@H](C)NC(=O)[C@H](CC(C)C)NC(=O)[C@H](CC(C)C)NC(=O)[C@H](Cc1c[nH]c2ccccc12)NC(=O)[C@H](CC(N)=O)NC(=O)[C@@H](NC(=O)[C@H](Cc1ccccc1)NC(=O)[C@H](CCC(=O)O)NC(=O)C(C)(C)NC(=O)[C@H](C)NC(=O)[C@H](C)NC(=O)[C@H](CCC(N)=O)NC(=O)[C@H](CCCCN)NC(=O)[C@H](CC(=O)O)NC(=O)[C@H](CC(C)C)NC(=O)[C@H](Cc1ccc(O)cc1)NC(=O)[C@@H](NC(=O)[C@H](CO)NC(=O)[C@H](Cc1ccc(O)cc1)NC(=O)[C@H](CC(=O)O)NC(=O)[C@H](CO)NC(=O)[C@@H](NC(=O)[C@H](Cc1ccccc1)NC(=O)[C@@H](NC(=O)CNC(=O)[C@@H](CC(=O)O)NC(=O)CSCC(=O)NCCN1CCCCC1=O)[C@@H](C)O)[C@@H](C)O)[C@@H](C)CC)C(C)C)C(N)=O)C(=O)O [Compound 218] (X6-[dD]GTFTSDYSIYLDKQAA[Aib]EFVNWLLAGGPSSGAPPPSK([γGlu-Palmitoyl])-NH2) | 19 to 23 | < 6.00 | 96 | 0.1 to 1 | – | – | – | –
2 | CCCCCCCCCCCCCCCC(=O)N[C@@H](CCC(=O)NCCCC[C@H](NC(=O)[C@H](CO)NC(=O)[C@@H]1CCCN1C(=O)[C@@H]1CCCN1C(=O)[C@@H]1CCCN1C(=O)[C@H](C)NC(=O)CNC(=O)[C@H](CO)NC(=O)[C@H](CO)NC(=O)[C@@H]1CCCN1C(=O)CNC(=O)CNC(=O)[C@H](C)NC(=O)[C@H](CC(C)C)NC(=O)[C@H](CC(C)C)NC(=O)[C@H](Cc1c[nH]c2ccccc12)NC(=O)[C@H](CC(N)=O)NC(=O)[C@@H](NC(=O)[C@H](Cc1ccccc1)NC(=O)[C@H](CCC(=O)O)NC(=O)C(C)(C)NC(=O)[C@H](C)NC(=O)[C@H](C)NC(=O)[C@H](CCC(N)=O)NC(=O)[C@H](CCCCN)NC(=O)[C@H](CC(=O)O)NC(=O)[C@H](CC(C)C)NC(=O)[C@H](Cc1ccc(O)cc1)NC(=O)[C@@H](NC(=O)[C@H](CO)NC(=O)[C@H](Cc1ccc(O)cc1)NC(=O)[C@H](CC(=O)O)NC(=O)[C@H](CO)NC(=O)[C@@H](NC(=O)[C@H](Cc1ccccc1)NC(=O)[C@@H](NC(=O)CNC(=O)[C@H](Cc1nn[nH]n1)NC(=O)CSCC(=O)NCCN1CCCCC1=O)[C@@H](C)O)[C@@H](C)O)[C@@H](C)CC)C(C)C)C(N)=O)C(=O)O [Compound 223] (X6-[Ala(1H-tetrazol-5-yl)]GTFTSDYSIYLDKQAA[Aib]EFVNWLLAGGPSSGAPPPSK([γGlu-Palmitoyl])-NH2) | 91 | 6.00 to 8.00 | 101 | < 0.1 | 0.1 to 1 | – | – | –
3 | CCCCCCCCCCCCCCCC(=O)N[C@@H](CCC(=O)NCCCC[C@H](NC(=O)[C@H](CO)NC(=O)[C@@H]1CCCN1C(=O)[C@@H]1CCCN1C(=O)[C@@H]1CCCN1C(=O)[C@H](C)NC(=O)CNC(=O)[C@H](CO)NC(=O)[C@H](CO)NC(=O)[C@@H]1CCCN1C(=O)CNC(=O)CNC(=O)[C@H](C)NC(=O)[C@H](CC(C)C)NC(=O)[C@H](CC(C)C)NC(=O)[C@H](Cc1c[nH]c2ccccc12)NC(=O)[C@H](CC(N)=O)NC(=O)[C@@H](NC(=O)[C@H](Cc1ccccc1)NC(=O)[C@H](CCC(=O)O)NC(=O)C(C)(C)NC(=O)[C@H](C)NC(=O)[C@H](C)NC(=O)[C@H](CCC(N)=O)NC(=O)[C@H](CCCCN)NC(=O)[C@H](CC(=O)O)NC(=O)[C@H](CC(C)C)NC(=O)[C@](C)(Cc1ccc(O)cc1)NC(=O)[C@@H](NC(=O)[C@H](CO)NC(=O)[C@H](Cc1ccc(O)cc1)NC(=O)[C@H](CC(=O)O)NC(=O)[C@H](CO)NC(=O)[C@@H](NC(=O)[C@H](Cc1ccccc1)NC(=O)[C@@H](NC(=O)CNC(=O)[C@H](CCC(=O)O)NC(=O)CSCC(=O)NCCN1CCCCC1=O)[C@@H](C)O)[C@@H](C)O)[C@@H](C)CC)C(C)C)C(N)=O)C(=O)O [Compound 225] | 70 to 80 | < 6.00 | – | 0.1 to 1 | 1 to 10 | – | – | –
4 | CCCCCCCCCCCCCCCC(=O)N[C@@H](CCC(=O)NCCCC[C@H](NC(=O)[C@H](CO)NC(=O)[C@@H]1CCCN1C(=O)[C@@H]1CCCN1C(=O)[C@@H]1CCCN1C(=O)[C@H](C)NC(=O)CNC(=O)[C@H](CO)NC(=O)[C@H](CO)NC(=O)[C@@H]1CCCN1C(=O)CNC(=O)CNC(=O)[C@H](C)NC(=O)[C@H](CC(C)C)NC(=O)[C@H](CC(C)C)NC(=O)[C@H](Cc1c[nH]c2ccccc12)NC(=O)[C@H](CC(N)=O)NC(=O)[C@@H](NC(=O)[C@H](Cc1ccccc1)NC(=O)[C@H](CCC(=O)O)NC(=O)C(C)(C)NC(=O)[C@H](C)NC(=O)[C@H](C)NC(=O)[C@H](CCC(N)=O)NC(=O)[C@H](CCCCN)NC(=O)[C@H](CC(=O)O)NC(=O)[C@H](CC(C)C)NC(=O)[C@H](Cc1ccc(O)cc1)NC(=O)[C@@H](NC(=O)[C@H](CO)NC(=O)[C@H](Cc1ccc(O)cc1)NC(=O)[C@H](CC(=O)O)NC(=O)[C@H](CO)NC(=O)[C@@H](NC(=O)[C@H](Cc1ccccc1)NC(=O)[C@@H](NC(=O)CNC(=O)[C@H](CCC(=O)O)NC(=O)CSCC(=O)NCC(=O)N1CCCCC1)[C@@H](C)O)[C@@H](C)O)[C@@H](C)CC)C(C)C)C(N)=O)C(=O)O [Compound 226] | 17 | < 6.00 | 89 | 1 to 10 | 100 to 1000 | – | – | –
5 | CCCCCCCCCCCCCCCC(=O)N[C@@H](CCC(=O)NCCCC[C@H](NC(=O)[C@H](CO)NC(=O)[C@@H]1CCCN1C(=O)[C@@H]1CCCN1C(=O)[C@@H]1CCCN1C(=O)[C@H](C)NC(=O)CNC(=O)[C@H](CO)NC(=O)[C@H](CO)NC(=O)[C@@H]1CCCN1C(=O)CNC(=O)CNC(=O)[C@H](C)NC(=O)[C@H](CC(C)C)NC(=O)[C@H](CC(C)C)NC(=O)[C@H](Cc1c[nH]c2ccccc12)NC(=O)[C@H](CC(N)=O)NC(=O)[C@@H](NC(=O)[C@H](Cc1ccccc1)NC(=O)[C@H](CCC(=O)O)NC(=O)C(C)(C)NC(=O)[C@H](C)NC(=O)[C@H](C)NC(=O)[C@H](CCC(N)=O)NC(=O)[C@H](CCCCN)NC(=O)[C@H](CC(=O)O)NC(=O)[C@H](CC(C)C)NC(=O)[C@H](Cc1ccc(O)cc1)NC(=O)[C@@H](NC(=O)[C@H](CO)NC(=O)[C@H](Cc1ccc(O)cc1)NC(=O)[C@H](CC(=O)O)NC(=O)[C@H](CO)NC(=O)[C@@H](NC(=O)[C@H](Cc1ccccc1)NC(=O)[C@@H](NC(=O)CNC(=O)[C@H](CCC(=O)O)NC(=O)CSCC(=O)NCCn1cccc(C)c1=O)[C@@H](C)O)[C@@H](C)O)[C@@H](C)CC)C(C)C)C(N)=O)C(=O)O [Compound 232] | 78 | – | 95 | – | – | 1 to 10 | < 6.00 | 0.1 to 1
6 | CCCCCCCCCCCCCCCC(=O)N[C@@H](CCC(=O)NCCCC[C@H](NC(=O)[C@H](CO)NC(=O)[C@@H]1CCCN1C(=O)[C@@H]1CCCN1C(=O)[C@@H]1CCCN1C(=O)[C@H](C)NC(=O)CNC(=O)[C@H](CO)NC(=O)[C@H](CO)NC(=O)[C@@H]1CCCN1C(=O)CNC(=O)CNC(=O)[C@H](C)NC(=O)[C@H](CC(C)C)NC(=O)[C@H](CC(C)C)NC(=O)[C@H](Cc1c[nH]c2ccccc12)NC(=O)[C@H](CC(N)=O)NC(=O)[C@@H](NC(=O)[C@H](Cc1ccccc1)NC(=O)[C@H](CCC(=O)O)NC(=O)C(C)(C)NC(=O)[C@H](C)NC(=O)[C@H](C)NC(=O)[C@H](CCC(N)=O)NC(=O)[C@H](CCCCN)NC(=O)[C@H](CC(=O)O)NC(=O)[C@H](CC(C)C)NC(=O)[C@H](Cc1ccc(O)cc1)NC(=O)[C@@H](NC(=O)[C@H](CO)NC(=O)[C@H](Cc1ccc(O)cc1)NC(=O)[C@H](CC(=O)O)NC(=O)[C@H](CO)NC(=O)[C@@H](NC(=O)[C@H](Cc1ccccc1)NC(=O)[C@@H](NC(=O)CNC(=O)[C@H](CCC(=O)O)NC(=O)CSCC(=O)NCCn1cc(C)ccc1=O)[C@@H](C)O)[C@@H](C)O)[C@@H](C)CC)C(C)C)C(N)=O)C(=O)O [Compound 238] | 82 | – | 95 | – | – | 1 to 10 | < 6.00 | 0.1 to 1
